Data on two substances can be found in US9637592B2, “Vitamin functionalized gel-forming block copolymers for biomedical applications” (International Business Machines Corporation, priority 2013, dated 2017).

One assay has as its system C. albicans. Format: cell-based, Candida albicans. The settings on record: solution, 5.0 mg/L (5 ppm).
For the next assay, the system named is P. aeruginosa. In words: killing efficiency / MBC. In kind it is cell-based, Pseudomonas aeruginosa. The settings on record: drug alone. As to the method: Procedure for hydrogels: E. coli, P. aeruginosa, S. aureus and C. albicans were obtained from ATCC and reconstituted from its lyophilized form according to the manufacturer's protocol. Bacterial samples were cultured in Tryptic Soy Broth (TSB) solution at 37° C. under constant shaking of 300 rpm. C. albicans was culture in yeast medium at room temperature under constant shaking of 70 rpm. Prior to treatment, the bacterial sample was first inoculated and cultured to enter into log growth phase. To prepare the antimicrobial hydrogels, cationic polymer was first dissolved in filtered HPLC water in a bio-hood. The resultant solution was then added to solid triblock copolymer for dissolution and left to stand 4 hours at room temperature for the formation of the hydrogels (Example 28 and Example 29). […]
[…] The concentration of bacterial solution was adjusted to give an initial optical density (O.D.) reading of approximately 0.07 at 600 nm wavelength on a microplate reader (TECAN, Switzerland), which corresponds to the concentration of McFarland 1 solution (3×10^8 CFU/mL) The bacterial solution was then diluted and an equal volume of bacterial suspension (3×10^5) was added into each well. […] The plates were incubated for 24 hours at 37° C. and the number of colony-forming units (CFU) was counted. […]

Protocol for C. albicans: A stock solution of cationic polymer VE/PrBr(1:15) (5 mg) in sterile HPLC grade water (10 ml) was prepared having a final concentration of 500 mg/L (500 ppm). A second stock solution of fluconazole (1 mg) in sterile HPLC grade water (100 ml) was prepared having a final concentration of 10 mg/L (10 ppm). […] Formulation (2) was obtained by combining 125 microliters each of the stock solutions of cationic polymer and fluconazole and diluting the resulting solution with 750 microliters of sterile HPLC grade water.

For Fluconazole, the “killing efficiency against C. albicans” value with C. albicans was found to be 93.53%. Doxycycline [DXY]: the “MBC against P. aeruginosa” value in the assay with P. aeruginosa fell in the range of 20 to 30 µg/mL.
